Assay results: patent US10654848B1, “Neutrophil inflammation inhibitor and uses thereof” (Chang Gung University of Science and Technology, priority 2018, dated 2020)
Structures can show the parent of a compound that is named as a salt.

Tests used:
[1] = tested on: human neutrophils; assay: Superoxide anion (O2•−) generation in fMLF/CB-activated human neutrophils (SOD-inhibitable ferricytochrome c reduction); type: cell-based; conditions: at 10 μM concentration; FMLP/CB-induced human neutrophils; mean ± S.E.M. (n = 3-5)
Procedure: Human neutrophils were obtained in lipopolysaccharide-free conditions by means of dextran sedimentation and Ficoll centrifugation.
O2^•− production was determined based on the SOD-inhibitable reduction of ferricytochrome c. Briefly, neutrophils (6×10^5/mL) were treated with a candidate compound at 37° C. at various concentrations (0.001 to 10 μM) for 5 min after being supplementing with 0.5 mg/mL ferricytochrome c and 1 mM Ca^2+. Cells were then activated with fMLF (0.1 μM) for 10 min in the pre-process of cytochalasin B (CB, 1 μg/mL) for 3 min. Changes in absorbance with the reduction of ferricytochrome c at 550 nm were continuously monitored in a double-beam, six-cell positioner spectrophotometer with constant stirring (Hitachi U-3010, Tokyo, Japan). Calculations were based on the differences in the reactions with and without SOD (100 U ml^−1) divided by the extinction coefficient for the reduction of ferricytochrome c (E=21.1 mM^−1/10 mm).

Row | SMILES | melting point | Superoxide Anion Inhibition % [1]
1 | Cn1nc(N)c2c(Nc3ccc(F)cc3)nc3ccccc3c21 (as salt: salt) [Compound 4, 4-(4-Fluoroanilino)-1-methyl-1H-pyrazolo[4,3-c]quinolin-3-amine] | 218 to 219 °C | –
2 | COc1cccc(Nc2nc3ccccc3c3c2c(N)nn3C)c1 (as salt: salt) [Compound 6, 4-(3-Methoxyanilino)-1-methyl-1H-pyrazolo[4,3-c]quinolin-3-amine] | 284 to 286 °C | –
3 | COc1ccc(Nc2nc3ccccc3c3c2c(N)nn3C)cc1 (as salt: salt) [Compound 7, 4-(4-Methoxyanilino)-1-methyl-1H-pyrazolo[4,3-c]quinolin-3-amine] | 193 to 194 °C | –
4 | COc1cc(Nc2nc3ccccc3c3c2c(N)nn3C)cc(OC)c1OC (as salt: salt) [Compound 8, 4-(3,4,5-Trimethoxyanilino)-1-methyl-1H-pyrazolo[4,3-c]quinolin-3-amine] | 219 to 220 °C | –
5 | CSc1ccc(Nc2nc3ccccc3c3c2c(N)nn3C)cc1 (as salt: salt) [Compound 9, 1-Methyl-4-(4-methylthioanilino)-1H-pyrazolo[4,3-c]quinolin-3-amine] | 233 to 235 °C | –
6 | Cn1nc(N)c2c(Nc3ccccc3O)nc3ccccc3c21 (as salt: salt) [Compound 11, 4-(2-Hydroxyanilino)-1-methyl-1H-pyrazolo[4,3-c]quinolin-3-amine] | 233 to 235 °C | –
7 | Cn1nc(N)c2c(Nc3cccc(O)c3)nc3ccccc3c21 (as salt: salt) [Compound 12, 4-(3-Hydroxyanilino)-1-methyl-1H-pyrazolo[4,3-c]quinolin-3-amine] | 190 to 191 °C | –
8 | Cn1nc(N)c2c(Nc3ccc(O)cc3)nc3ccccc3c21 (as salt: salt) [Compound 13, 4-(4-Hydroxyanilino)-1-methyl-1H-pyrazolo[4,3-c]quinolin-3-amine] | 320 to 322 °C | –
9 | Cn1nc(N)c2c(Nc3ccc(C(F)(F)F)cc3)nc3ccccc3c21 (as salt: salt) [Compound 14, 4-(4-Trifluoromethylanilino)-1-methyl-1H-pyrazolo[4,3-c]quinolin-3-amine] | 219 to 220 °C | –
10 | Cn1nc(N)c2c(Nc3ccc(C(=O)O)cc3)nc3ccccc3c21 (as salt: salt) [Compound 15, 4-[(3-Amino-1-methyl-1H-pyrazolo[4,3-c]quinolin-4-yl)amino]benzoic acid] | 325 to 326 °C | –
11 | Cn1nc(N)c2c(Nc3ccccc3S)nc3ccccc3c21 (as salt: salt) [Compound 16, 2-[(3-amino-1-methyl-1H-pyrazolo[4,3-c]quinolin-4-yl)amino]benzenethiol] | 235 to 236 °C | –
12 | Cn1nc(N)c2c(Nc3ccc(Cl)cc3)nc3ccccc3c21 (as salt: salt) [Compound 17, 4-(4-Chloroanilino)-1-methyl-1H-pyrazolo[4,3-c]quinolin-3-amine] | 281 to 282 °C | –
13 | Cc1ccc(Nc2nc3ccccc3c3c2c(N)nn3C)cc1 (as salt: salt) [Compound 18, 4-(4-Methylanilino)-1-methyl-1H-pyrazolo[4,3-c]quinolin-3-amine] | 253 to 255 °C | –
14 | Nc1noc2c1c(Nc1ccccc1)nc1ccccc12 (as salt: salt) [Compound 19, 4-Anilinoisoxazolo[4,5-c]quinolin-3-amine] | 266 to 267 °C | –
15 | Nc1noc2c1c(Nc1ccc(F)cc1)nc1ccccc12 (as salt: salt) [Compound 20, 4-(4-Fluoroanilino)isoxazolo[4,5-c]quinolin-3-amine] | 271 to 272 °C | –
16 | COc1ccccc1Nc1nc2ccccc2c2onc(N)c12 (as salt: salt) [Compound 21, 4-(2-Methoxyanilino)isoxazolo[4,5-c]quinolin-3-amine] | 261 to 262 °C | –
17 | COc1cccc(Nc2nc3ccccc3c3onc(N)c23)c1 (as salt: salt) [Compound 22, 4-(3-Methoxyanilino)isoxazolo[4,5-c]quinolin-3-amine] | 262 to 263 °C | –

Row | SMILES | melting point | Superoxide Anion Inhibition % [1]
18 | COc1ccc(Nc2nc3ccccc3c3onc(N)c23)cc1 (as salt: salt) [Compound 23, 4-(4-Methoxyanilino)isoxazolo[4,5-c]quinolin-3-amine] | 257 to 259 °C | –
19 | COc1cc(Nc2nc3ccccc3c3onc(N)c23)cc(OC)c1OC (as salt: salt) [Compound 24, 4-(3,4,5-Trimethoxyanilino)isoxazolo[4,5-c]quinolin-3-amine] | 264 to 266 °C | –
20 | CSc1ccc(Nc2nc3ccccc3c3onc(N)c23)cc1 (as salt: salt) [Compound 25, 4-(4-Methylthioanilino)isoxazolo[4,5-c]quinolin-3-amine] | 246 to 247 °C | –
21 | CC(=O)c1cccc(Nc2nc3ccccc3c3onc(N)c23)c1 (as salt: salt) [Compound 26, 4-(3-Acetoylanilino)isoxazolo[4,5-c]quinolin-3-amine] | 249 to 250 °C | –
22 | CC(=O)c1ccc(Nc2nc3ccccc3c3onc(N)c23)cc1 (as salt: salt) [Compound 27, 4-(4-Acetoylanilino)isoxazolo[4,5-c]quinolin-3-amine] | 255 to 257 °C | –
23 | Nc1noc2c1c(Nc1ccccc1O)nc1ccccc12 (as salt: salt) [Compound 28, 4-(2-Hydroxyanilino)isoxazolo[4,5-c]quinolin-3-amine] | 240 to 241 °C | –
24 | Nc1noc2c1c(Nc1ccc(O)cc1)nc1ccccc12 (as salt: salt) [Compound 29, 4-(4-Hydroxyanilino)isoxazolo[4,5-c]quinolin-3-amine] | 236 to 237 °C | –
25 | Nc1noc2c1c(Nc1ccc(C(F)(F)F)cc1)nc1ccccc12 (as salt: salt) [Compound 30, 4-(4-Trifluoromethylanilino)isoxazolo[4,5-c]quinolin-3-amine] | 227 to 229 °C | –
26 | Nc1noc2c1c(Nc1ccc(C(=O)O)cc1)nc1ccccc12 (as salt: salt) [Compound 31, 4-[(3-aminoisoxazolo[4,5-c]quinolin-4-yl)amino]benzoic acid] | 308 to 310 °C | –
27 | Nc1noc2c1c(Nc1ccc(Cl)cc1)nc1ccccc12 (as salt: salt) [Compound 32, 4-(4-Chloroanilino)isoxazolo[4,5-c]quinolin-3-amine] | 268 to 269 °C | –
28 | Cc1ccc(Nc2nc3ccccc3c3onc(N)c23)cc1 (as salt: salt) [Compound 33, 4-(4-Methylanilino)isoxazolo[4,5-c]quinolin-3-amine] | 173 to 175 °C | –
29 | COc1ccccc1Nc1nc2ccccc2c2c1c(N)nn2C [Compound 5, 4-(2-Methoxyanilino)-1-methyl-1H-pyrazolo[4,3-c]quinolin-3-amine] | 229 to 230 °C | –
30 | CC(=O)c1ccc(Nc2nc3ccccc3c3c2c(N)nn3C)cc1 [Compound 10, 4-(4-Acetoylanilino)-1-methyl-1H-pyrazolo[4,3-c]quinolin-3-amine] | 272 to 274 °C | –
31 | CSc1ccc(Nc2nc3ccccc3c3onc(N)c23)cc1 [Compound 25, 4-(4-Methylthioanilino)isoxazolo[4,5-c]quinolin-3-amine] | – | enhanced
32 | Nc1noc2c1c(Nc1ccc(C(F)(F)F)cc1)nc1ccccc12 [Compound 30, 4-(4-Trifluoromethylanilino)isoxazolo[4,5-c]quinolin-3-amine] | – | enhanced
33 | Cc1ccc(Nc2nc3ccccc3c3onc(N)c23)cc1 [Compound 33, 4-(4-Methylanilino)isoxazolo[4,5-c]quinolin-3-amine] | – | enhanced
